Results as given in article PMC12481929, “Oral delivery of teriparatide utilizing biocompatible transferrin-engineered MOF nanoparticles for osteoporosis therapy” (Materials Today Bio, 2025).

Columns and labels:
[1] = test system: osteoporosis model mice (OVX); experiment: New bone formation in vivo, micro-CT of femurs; conditions: one month, M@P@T 200 μg kg^−1 oral, TRP 20 μg kg^−1 SC daily
Protocol: This study was approved by the Animal Ethics Committee of Wuhan University (ethics number WP20230395), and all animal experiments were conducted in accordance with the Regulations on the Management of Experimental Animals in China and the guidelines of the Committee for Animal Care and Use at Wuhan University. In this study, 6-week-old female C57 mice (purchased from Beijing HFK Bioscience Co., Ltd.) were randomly divided into five groups (Sham, OVX, M@P, M@P@T, and TRP SC). Bilateral ovariectomy was performed via a dorsal incision to establish an osteoporosis model. In the Sham group, the same volume of fat tissue was removed bilaterally. After surgery, the mice were regularly given penicillin and pain medication. All mice were housed in a comfortable environment at 22–25 °C and […] and had free access to food and water. The successful construction of the osteoporosis model was confirmed two months after surgery via micro–computed tomography (micro-CT).
To validate the in vivo efficacy of the NPs, we measured various bone parameters related to the formation of new bone and its internal structure using micro-CT (SkyScan 1276) following the ASBMR reporting standards. […] The efficacy of new bone formation was assessed by comparing these parameters determined from the control and treatment groups.

[2] = In vivo pharmacokinetics, serum TRP by ELISA; conditions: osteoporotic mice
Protocol: The pharmacokinetics and pharmacodynamics of M@P@T NPs were evaluated using the osteoporosis mice model. Mice were randomly divided into three experimental groups, with five mice per group: TRP SC, M@P, and M@P@T. M@P NPs (200 μg kg^−1) and M@P@T NPs (200 μg kg^−1) were administered by oral gavage, while TRP (20 μg kg^−1) was injected subcutaneously. Serum TRP concentrations were measured using an ELISA kit. Blood samples were collected at 0, 0.5, 1, 1.5, 2, 3, 6, 8, and 12 h post-administration to determine TRP concentration. The area under the serum TRP concentration−time curve (AUC) was calculated to determine the relative bioavailability of M@P@T. The pharmacokinetic parameters of M@P@T were then compared to those of TRP SC and M@P groups.

With CC[C@H](C)[C@H](NC(=O)[C@H](CCC(=O)O)NC(=O)[C@H](CO)NC(=O)[C@@H](NC(=O)[C@@H](N)CO)C(C)C)C(=O)N[C@@H](CCC(N)=O)C(=O)N[C@@H](CC(C)C)C(=O)N[C@@H](CCSC)C(=O)N[C@@H](Cc1cnc[nH]1)C(=O)N[C@@H](CC(N)=O)C(=O)N[C@@H](CC(C)C)C(=O)NCC(=O)N[C@@H](CCCCN)C(=O)N[C@@H](Cc1cnc[nH]1)C(=O)N[C@@H](CC(C)C)C(=O)N[C@@H](CC(N)=O)C(=O)N[C@@H](CO)C(=O)N[C@@H](CCSC)C(=O)N[C@@H](CCC(=O)O)C(=O)N[C@@H](CCCN=C(N)N)C(=O)N[C@H](C(=O)N[C@@H](CCC(=O)O)C(=O)N[C@@H](Cc1c[nH]c2ccccc12)C(=O)N[C@@H](CC(C)C)C(=O)N[C@@H](CCCN=C(N)N)C(=O)N[C@@H](CCCCN)C(=O)N[C@@H](CCCCN)C(=O)N[C@@H](CC(C)C)C(=O)N[C@@H](CCC(N)=O)C(=O)N[C@@H](CC(=O)O)C(=O)N[C@H](C(=O)N[C@@H](Cc1cnc[nH]1)C(=O)N[C@@H](CC(N)=O)C(=O)N[C@@H](Cc1ccccc1)C(=O)O)C(C)C)C(C)C [TRP, teriparatide] the “new bone formation (3D reconstruction)” value [1] was “more new bone formation than the other groups”, the “time to return to the baseline level” value ([2]; 20 μg kg^−1 SC) was at most 2 h and the Tmax ([2]; mouse, in vivo, 20 ug/kg, 20 μg kg^−1 SC, read-out: time of peak plasma concentration of TRP) was 30 min. For the same compound, the AUC(0-t) ([2]; mouse, sc, 20 ug/kg, n = 5, TRP 20 µg/kg s.c., M@P and M@P@T 200 µg/kg oral, serum TRP ELISA, 0-12 h, mean ± SD) was 0.117 ± 0.0112 ng·h/mL and the “F, relative bioavailability” value ([2]; n = 5, relative to TRP 20 µg/kg s.c., oral 200 µg/kg) was 100%.
